Assay results taken from US9475816B2, “Substituted-1,4-dihydropyrazolo[4,3-b]indoles” (TAKEDA PHARMACEUTICAL COMPANY LIMITED, priority 2012, dated 2016).

Legend:
[1] = target: T1, human MetAP2 enzyme (Homo sapiens, UniProt P50579); test: MetAP2 enzyme assay, MetAP2 enzyme complexed with manganese ions; conditions: MetAP2 Mn pIC50, 10 μM MnCl2; -log(IC50), IC50 molar
Procedure: (§1) DNA encoding the full-length sequence of human MetAP2 enzyme is amplified by PCR and cloned into a pFastBac expression vector (Invitrogen). Recombinant baculovirus incorporating the MetAP2 construct is generated by transposition using the Bac-to-Bac system (Invitrogen). The expression of recombinant protein is carried out by infection of Spodoptera frugiperda Sf9 cells (Invitrogen) in 5L Wave Bioreactors (Wave Biotech). Recombinant protein is isolated from cellular extracts by binding to an SP Hitrap Fast Flow or SP Sepharose (Sigma) column, and the protein is eluted using a NaCl gradient. Partially purified extracts of MetAP2 are further purified by an AKTA FPLC over a Superdex-200 column (GE). The purity of MetAP2 protein is determined on denaturing SDS-PAGE gel.
(§2) The results for each well are expressed as percent inhibition and calculated using the equation:

[2] = target: T1, human MetAP2 enzyme; test: MetAP2 enzyme assay, MetAP2 enzyme complexed with cobalt ions; conditions: MetAP2 Co pIC50, 10 μM CoCl2; -log(IC50), IC50 molar
Procedure: as §1, §2

T1 sequence (P50579 whole entry): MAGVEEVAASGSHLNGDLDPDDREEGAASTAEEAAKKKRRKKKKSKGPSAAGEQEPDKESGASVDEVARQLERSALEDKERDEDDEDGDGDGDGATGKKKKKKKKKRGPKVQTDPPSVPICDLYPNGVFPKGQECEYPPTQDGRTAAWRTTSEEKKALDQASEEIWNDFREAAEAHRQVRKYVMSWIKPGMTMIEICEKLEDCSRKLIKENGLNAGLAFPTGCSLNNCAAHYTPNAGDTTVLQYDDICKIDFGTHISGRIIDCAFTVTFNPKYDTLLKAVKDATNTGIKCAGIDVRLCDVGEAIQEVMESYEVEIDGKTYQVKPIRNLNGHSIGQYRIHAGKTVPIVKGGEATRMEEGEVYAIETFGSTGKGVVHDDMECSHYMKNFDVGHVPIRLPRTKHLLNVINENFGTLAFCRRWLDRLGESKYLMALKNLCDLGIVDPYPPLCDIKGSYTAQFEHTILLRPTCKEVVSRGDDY

Row | SMILES | IC50 [1] | IC50 [2]
1 | Fc1ccc2c(c1)c1[nH]ncc1n2Cc1ccccc1 [Example 1, 4-Benzyl-7-fluoro-1,4-dihydropyrazolo[4,3-b]indole] | 31.6 nM | 39.8 nM
2 | CN1CCN(c2cc(-n3c4ccc(F)cc4c4[nH]ncc43)ccn2)CC1 [Example 8, 7-Fluoro-4-(2-(4-methylpiperazin-1-yl)pyridin-4-yl)-1,4-dihydropyrazolo[4,3-b]indole] | 5.01 nM | 25.1 nM
3 | Cc1ccc(-n2c3ccc(F)cc3c3[nH]ncc32)c(C)n1 [Example 10, 4-(2,6-Dimethylpyridin-3-yl)-7-fluoro-1,4-dihydropyrazolo[4,3-b]indole] | 7.94 nM | 12.6 nM
4 | Cc1cc2cnn(C)c2cc1-n1c2ccc(F)cc2c2[nH]ncc21 [Example 14, 4-(1,5-Dimethyl-1H-indazol-6-yl)-7-fluoro-1,4-dihydropyrazolo[4,3-b]indole] | 7.94 nM | 7.94 nM
5 | Cc1cc2cn(C)nc2cc1-n1c2ccc(F)cc2c2[nH]ncc21 [Example 16, 4-(2,5-Dimethyl-2H-indazol-6-yl)-7-fluoro-1,4-dihydropyrazolo[4,3-b]indole] | 6.31 nM | 7.94 nM
6 | Cc1c(-n2c3ccc(F)cc3c3[nH]ncc32)ccc2c1cnn2C [Example 17, 4-(1,4-Dimethyl-1H-indazol-5-yl)-7-fluoro-1,4-dihydropyrazolo[4,3-b]indole] | 6.31 nM | 7.94 nM
7 | Cc1nc(N2CC[C@@H](C(N)=O)C2)ncc1-n1c2ccc(F)cc2c2[nH]ncc21 [Example 20, (3R)-1-(5-(7-Fluoropyrazolo[4,3-b]indol-4(1H)-yl)-4-methylpyrimidin-2-yl)pyrrolidine-3-carboxamide] | 6.31 nM | 12.6 nM
8 | Cc1nc(N2CC[C@H](C(N)=O)C2)ncc1-n1c2ccc(F)cc2c2[nH]ncc21 [Example 21, (3S)-1-(5-(7-Fluoropyrazolo[4,3-b]indol-4(1H)-yl)-4-methylpyrimidin-2-yl)pyrrolidine-3-carboxamide] | 7.94 nM | 15.8 nM
9 | Fc1ccc2c(c1)c1[nH]ncc1n2-c1cnn2c1CNCC2 [Example 25, 7-Fluoro-4-(4,5,6,7-tetrahydropyrazolo[1,5-a]pyrazin-3-yl)-1,4-dihydropyrazolo[4,3-b]indole] | 12.6 nM | 25.1 nM
10 | Cc1cc2cn[nH]c2cc1-n1c2ccc(F)cc2c2[nH]ncc21 [Example 26, 7-Fluoro-4-(5-methyl-1H-indazol-6-yl)-1,4-dihydropyrazolo[4,3-b]indole] | 7.94 nM | 10 nM
11 | Cc1nc(N2CC[C@H](O)C2)ccc1-n1c2ccc(F)cc2c2[nH]ncc21 [Example 27, (3S)-1-(5-(7-Fluoropyrazolo[4,3-b]indol-4(1H)-yl)-6-methylpyridin-2-yl)pyrrolidin-3-ol] | 3.98 nM | 6.31 nM
12 | Cc1c(-n2c3ccc(F)cc3c3[nH]ncc32)cnc2[nH]c(=O)[nH]c12 [Example 28, 6-(7-Fluoropyrazolo[4,3-b]indol-4(1H)-yl)-7-methyl-1H-imidazo[4,5-b]pyridin-2(3H)-one] | 5.01 nM | 6.31 nM
13 | CCn1cnc2cc(-n3c4ccc(F)cc4c4[nH]ncc43)c(C)nc21 [Example 30, 4-(3-Ethyl-5-methyl-3H-imidazo[4,5-b]pyridin-6-yl)-7-fluoro-1,4-dihydropyrazolo[4,3-b]indole] | 6.31 nM | 3.98 nM
14 | COCCn1cnc2cc(-n3c4ccc(F)cc4c4[nH]ncc43)c(C)nc21 [Example 31, 7-Fluoro-4-(3-(2-methoxyethyl)-5-methyl-3H-imidazo[4,5-b]pyridin-6-yl)-1,4-dihydropyrazolo[4,3-b]indole] | 10 nM | 7.94 nM
15 | Cc1nc2c(cc1-n1c3ccc(F)cc3c3[nH]ncc31)[nH]c(=O)n2C[C@H](O)CO [Example 33, 3-((S)-2,3-Dihydroxypropyl)-6-(7-fluoropyrazolo[4,3-b]indol-4(1H)-yl)-5-methyl-1H-imidazo[4,5-b]pyridin-2(3H)-one] | 10 nM | 7.94 nM
16 | Cc1nc(N2CC[C@H](F)C2)ncc1-n1c2ccc(F)cc2c2[nH]ncc21 [Example 34, 7-Fluoro-4-(2-((S)-3-fluoropyrrolidin-1-yl)-4-methylpyrimidin-5-yl)-1,4-dihydropyrazolo[4,3-b]indole] | 79.4 nM | 63.1 nM
17 | Cc1nc(N2CC[C@@H](N(C)C)C2)ncc1-n1c2ccc(F)cc2c2[nH]ncc21 [Example 35, (3R)-1-(5-(7-Fluoropyrazolo[4,3-b]indol-4(1H)-yl)-4-methylpyrimidin-2-yl)-N,N-dimethylpyrrolidin-3-amine] | 79.4 nM | 39.8 nM
18 | Cc1nc(N2CC[C@@H](F)C2)ncc1-n1c2ccc(F)cc2c2[nH]ncc21 [Example 36, 7-Fluoro-4-(2-((R)-3-fluoropyrrolidin-1-yl)-4-methylpyrimidin-5-yl)-1,4-dihydropyrazolo[4,3-b]indole] | 63.1 nM | 39.8 nM
19 | Cc1nc(N2CCC[C@H](O)C2)ncc1-n1c2ccc(F)cc2c2[nH]ncc21 [Example 37, (3S)-1-(5-(7-Fluoropyrazolo[4,3-b]indol-4(1H)-yl)-4-methylpyrimidin-2-yl)piperidin-3-ol] | 6.31 nM | 6.31 nM

Continued by falling IC50 [1], values first:

Row | IC50 [1] | IC50 [2] | SMILES
20 | 63.1 nM | 100 nM | Nc1ncc(C(=O)O)cc1-n1c2ccc(F)cc2c2[nH]ncc21 [Example 18, 6-Amino-5-(7-fluoropyrazolo[4,3-b]indol-4(1H)-yl)nicotinic acid]
21 | 50.1 nM | 100 nM | Fc1cc2c3[nH]ncc3n(Cc3ccccc3)c2cc1F [Example 2, 4-Benzyl-6,7-difluoro-1,4-dihydropyrazolo[4,3-b]indole]
22 | 15.8 nM | 10 nM | CCn1nc(C)c(-n2c3ccc(F)cc3c3[nH]ncc32)c1C [Example 23, 4-(1-Ethyl-3,5-dimethyl-1H-pyrazol-4-yl)-7-fluoro-1,4-dihydropyrazolo[4,3-b]indole]
23 | 15.8 nM | 15.8 nM | Cc1[nH]c(=O)ccc1-n1c2ccc(F)cc2c2[nH]ncc21 [Example 40, 5-(7-Fluoropyrazolo[4,3-b]indol-4(1H)-yl)-6-methylpyridin-2(1H)-one]
24 | 12.6 nM | 15.8 nM | Cc1nc(N2CCN(C)CC2)ccc1-n1c2ccc(F)cc2c2[nH]ncc21 [Example 7, 7-Fluoro-4-(2-methyl-6-(4-methylpiperazin-1-yl)pyridin-3-yl)-1,4-dihydropyrazolo[4,3-b]indole]
25 | 12.6 nM | 12.6 nM | Cc1cc2[nH]ncc2cc1-n1c2ccc(F)cc2c2[nH]ncc21 [Example 19, 7-Fluoro-4-(6-methyl-1H-indazol-5-yl)-1,4-dihydropyrazolo[4,3-b]indole]
26 | 12.6 nM | 12.6 nM | Cc1cc(N)ncc1-n1c2ccc(F)cc2c2[nH]ncc21 [Example 41, 5-(7-Fluoropyrazolo[4,3-b]indol-4(1H)-yl)-4-methylpyridin-2-amine]
27 | 10 nM | 10 nM | Cc1cc2nn(C)cc2cc1-n1c2ccc(F)cc2c2[nH]ncc21 [Example 15, 4-(2,6-Dimethyl-2H-indazol-5-yl)-7-fluoro-1,4-dihydropyrazolo[4,3-b]indole]
28 | 10 nM | 31.6 nM | N#Cc1[nH]ncc1-n1c2ccc(F)cc2c2[nH]ncc21 [Example 22, 4-(7-Fluoropyrazolo[4,3-b]indol-4(1H)-yl)-1H-pyrazole-5-carbonitrile]
29 | 10 nM | 7.94 nM | Cc1nc2[nH]c(=O)n(CCO)c2cc1-n1c2ccc(F)cc2c2[nH]ncc21 [Example 32, 6-(7-Fluoropyrazolo[4,3-b]indol-4(1H)-yl)-1-(2-hydroxyethyl)-5-methyl-1H-imidazo[4,5-b]pyridin-2(3H)-one]
30 | 7.94 nM | 6.31 nM | Cc1nc(N2CCC(O)CC2)ncc1-n1c2ccc(F)cc2c2[nH]ncc21 [Example 29, 1-(5-(7-Fluoropyrazolo[4,3-b]indol-4(1H)-yl)-4-methylpyrimidin-2-yl)piperidin-4-ol]
31 | 7.94 nM | 6.31 nM | CNC(=O)[C@@H]1CCCN1c1ncc(-n2c3ccc(F)cc3c3[nH]ncc32)c(C)n1 [Example 38, (2S)-1-(5-(7-Fluoropyrazolo[4,3-b]indol-4(1H)-yl)-4-methylpyrimidin-2-yl)-N-methylpyrrolidine-2-carboxamide]
32 | 7.94 nM | 6.31 nM | Cc1nc(N2CCN(C)C(=O)C2)ncc1-n1c2ccc(F)cc2c2[nH]ncc21 [Example 39, 4-(5-(7-Fluoropyrazolo[4,3-b]indol-4(1H)-yl)-4-methylpyrimidin-2-yl)-1-methylpiperazin-2-one]
33 | 6.31 nM | 6.31 nM | Cc1nc(N2CC[C@@H](O)C2)ccc1-n1c2ccc(F)cc2c2[nH]ncc21 [Example 6, (3R)-1-(5-(7-Fluoropyrazolo[4,3-b]indol-4(1H)-yl)-6-methylpyridin-2-yl)pyrrolidin-3-ol]
34 | 6.31 nM | 10 nM | Cc1c(-n2c3ccc(F)cc3c3[nH]ncc32)ccc2nn(C)cc12 [Example 9, 4-(2,4-Dimethyl-2H-indazol-5-yl)-7-fluoro-1,4-dihydropyrazolo[4,3-b]indole]
35 | 6.31 nM | 100 nM | Cc1cccc(-n2c3ccc(F)cc3c3[nH]ncc32)n1 [Example 11, 7-Fluoro-4-(6-methylpyridin-2-yl)-1,4-dihydropyrazolo[4,3-b]indole]
36 | 5.01 nM | 12.6 nM | Cc1nc(NC[C@@H](C)O)ccc1-n1c2ccc(F)cc2c2[nH]ncc21 [Example 12, (2R)-1-((5-(7-Fluoropyrazolo[4,3-b]indol-4(1H)-yl)-6-methylpyridin-2-yl)amino)propan-2-ol]
37 | 3.98 nM | 6.31 nM | Cc1nc(N2CCC[C@@H](O)C2)ncc1-n1c2ccc(F)cc2c2[nH]ncc21 [Example 24, (3R)-1-(5-(7-Fluoropyrazolo[4,3-b]indol-4(1H)-yl)-4-methylpyrimidin-2-yl)piperidin-3-ol]
